In brackets after ≈: the same amount, converted by molar mass. Like-named read-outs stand apart in the source and are kept apart here.
Legend:
S. aureus SMITH = assay: MIC, panel of quinolone-resistant strains (Example 2); assay type: cell-based; conditions: Staphylococcus aureus; CIP R; read-out: MIC S. aureus SMITH
E. faecalis 29212 = assay: MIC, standard panel of Gram-positive and Gram-negative strains (Example 2); assay type: cell-based, Enterococcus faecalis; conditions: Enterococcus faecalis, 29212; read-out: MIC E. faecalis 29212
A. baumannii A390 = assay: MIC without and with sub-inhibitory polymyxin B (Example 4); assay type: cell-based, Acinetobacter baumannii; conditions: +0.06 μg/ml PB, 2nd experiment
A. baumanii 19606 = assay: MIC, standard panel of Gram-positive and Gram-negative strains (Example 2); assay type: cell-based; conditions: Acinetobacter baumannii
E. cloacae 13047 = assay: as above; assay type: cell-based, Enterobacter cloacae; conditions: Enterobacter cloacae, 13047; read-out: MIC E. cloacae 13047
E. faecium 19434 = assay: as above; assay type: cell-based; conditions: Enterococcus faecium
S. pneumoniae 49619 = assay: MIC, panel of quinolone-resistant strains (Example 2); assay type: cell-based, Streptococcus pneumoniae; conditions: Streptococcus pneumoniae, 49619; LEV S; read-out: MIC S. pneumoniae 49619
Cytotoxicity (Example 7) = assay type: cell-based; conditions: human, HEPG2 V1 cells
Protocol: The 4-oxoquinolizine compounds of the invention preferably have a low cytotoxicity against human cells. […].
Cytotoxicity was determined for the instant 4-oxoquinolizine compounds which show low cytotoxicity. (see Table 17 following). […]

S. aureus 101 = assay: MIC, standard panel of Gram-positive and Gram-negative strains (Example 2); assay type: cell-based; conditions: Staphylococcus aureus
S. epidermis 12228 = assay: as above; assay type: cell-based, Staphylococcus epidermis; conditions: Staphylococcus
A. baumannii A14 = assay: MIC without and with sub-inhibitory polymyxin B (Example 4); assay type: cell-based, Acinetobacter baumannii; conditions: 2nd experiment
A. baumannii A472 [1] = assay: Preliminary MBC without and with sub-inhibitory polymyxin B (Example 4); assay type: cell-based, Acinetobacter baumannii; conditions: Acinetobacter baumannii, preliminary MBC
A. baumannii A472 [2] = assay: MIC without and with sub-inhibitory polymyxin B (Example 4); assay type: cell-based, Acinetobacter baumannii; conditions: for MIC: Acinetobacter baumannii
[3] = A. baumannii A14, +0.06 μg/ml PB

Cc1c(-c2cc(Cl)c(N)c(Cl)c2)ccn2c(=O)c(C(=O)O)cc(C3CC3)c12 [Compound 3, 8-(3,5-dichloro-4-amino-phenyl)-1-cyclopropyl-9-methyl-4-oxo-quinolizine-3-carboxylic acid]
MIC (S. aureus SMITH): 0.5 µg/mL (≈ 1.24 µM)
MIC (E. faecalis 29212): 0.016 µg/mL (≈ 0.0397 µM)
MIC without PB/MIC + PB (A. baumannii A390; A. baumannii A390): ≥256
MIC (A. baumannii A390; Acinetobacter baumannii, A390, A. baumannii A390, read-out: MIC): 0.125 µg/mL (≈ 0.31 µM)
MIC (A. baumanii 19606): 0.25 µg/mL (≈ 0.62 µM)
MIC (E. cloacae 13047): 0.5 µg/mL (≈ 1.24 µM)
MIC (E. faecium 19434): 0.5 µg/mL (≈ 1.24 µM)
MIC (S. pneumoniae 49619): 0.5 µg/mL (≈ 1.24 µM)
IC50 (Cytotoxicity (Example 7)): 50 µM
MIC (S. aureus 101): 0.06 µg/mL (≈ 0.149 µM)
MIC (S. epidermis 12228): 8 ng/mL (≈ 0.0198 µM)
MIC (A. baumannii A14; [3]): 0.125 µg/mL (≈ 0.31 µM)
MIC without PB/MIC + PB (A. baumannii A14; [3]): ≥256
MIC (A. baumannii A14; Acinetobacter baumannii, A14, A. baumannii A14, without PB, read-out: MIC): > 32 µg/mL
MBC (A. baumannii A472 [1]; A472, A. baumannii A472, +[…] PB, 2nd experiment, read-out: MBC): ≤ 0.03 µg/mL
MBC (A. baumannii A472 [1]; A472, read-out: MBC +[…] PB, A. baumannii A472, +[…] polymyxin B, 1st experiment): 0.25 µg/mL (≈ 0.62 µM)
MIC without PB/MIC + PB (A. baumannii A472 [2]; A. baumannii A472, ratio, PB […], 1st experiment): 64
MIC (A. baumannii A472 [2]; A472, A. baumannii A472, +[…] PB, 2nd experiment, read-out: MIC): ≤ 0.03 µg/mL
MIC (A. baumannii A472 [2]; A472, read-out: MIC +[…] PB, A. baumannii A472, +[…] polymyxin B, 1st experiment): 0.5 µg/mL (≈ 1.24 µM)

— patent US20190105367A1, “ANTIMICROBIAL 4-OXOQUINOLIZINES” (Emergent Product Development Gaithersburg Inc., priority 2011, published 2019)
